Results reported in ChEMBL document CHEMBL4020798, “Anti-inflammatory effects and corresponding mechanisms of cirsimaritin extracted from Cirsium japonicum var. maackii Maxim” (Bioorg Med Chem Lett, 2017).
≈ marks a conversion by molar mass, not a printed value. Calls of active or inactive are those of the source. No cut-off for these calls is given here.

Tests used:
[1] = target: T1, NF-kappa-B inhibitor alpha (Mus musculus) (UniProt Q9Z1E3); test: Inhibition of IkappaBalpha degradation in mouse RAW264.7 cells at 5 to 10 ug/ml preincubated for 1 hr followed by LPS-stimulation for 1 hr by Western blot method; assay type: cell-based
T1 sequence (whole entry): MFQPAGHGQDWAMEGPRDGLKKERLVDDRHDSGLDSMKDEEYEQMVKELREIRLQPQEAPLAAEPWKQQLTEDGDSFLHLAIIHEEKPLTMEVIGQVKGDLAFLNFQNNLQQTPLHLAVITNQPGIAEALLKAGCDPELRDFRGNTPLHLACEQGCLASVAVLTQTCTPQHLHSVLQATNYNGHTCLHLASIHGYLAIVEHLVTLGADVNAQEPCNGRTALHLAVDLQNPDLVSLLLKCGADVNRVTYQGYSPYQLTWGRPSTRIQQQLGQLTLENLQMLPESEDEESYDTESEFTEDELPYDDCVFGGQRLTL

RAW264.7 [2] = test: Downregulation of IL-6 mRNA expression levels in mouse RAW264.7 cells at 5 to 10 ug/ml preincubated for 1 hr followed by LPS-stimulation for 4 hrs by qRT-PCR method; assay type: functional, cell-based
RAW264.7 [3] = test: Cytotoxicity against mouse RAW264.7 cells assessed as decrease in cell viability at 1 to 12 ug/ml pretreated for 1 hr followed by LPS stimulation for 20 hrs by CCK8/EZ-cytox assay; assay type: cell-based; details: raw264.7, 20 h
[4] = target: T2, Nitric oxide synthase, inducible (Mus musculus) (UniProt P29477); test: Inhibition of LPS-induced iNOS expression in mouse RAW264.7 cells at 5 to 10 ug/ml pretreated for 1 hr followed by LPS stimulation for 20 hrs by immunoblotting method; assay type: cell-based
T2 sequence (whole entry): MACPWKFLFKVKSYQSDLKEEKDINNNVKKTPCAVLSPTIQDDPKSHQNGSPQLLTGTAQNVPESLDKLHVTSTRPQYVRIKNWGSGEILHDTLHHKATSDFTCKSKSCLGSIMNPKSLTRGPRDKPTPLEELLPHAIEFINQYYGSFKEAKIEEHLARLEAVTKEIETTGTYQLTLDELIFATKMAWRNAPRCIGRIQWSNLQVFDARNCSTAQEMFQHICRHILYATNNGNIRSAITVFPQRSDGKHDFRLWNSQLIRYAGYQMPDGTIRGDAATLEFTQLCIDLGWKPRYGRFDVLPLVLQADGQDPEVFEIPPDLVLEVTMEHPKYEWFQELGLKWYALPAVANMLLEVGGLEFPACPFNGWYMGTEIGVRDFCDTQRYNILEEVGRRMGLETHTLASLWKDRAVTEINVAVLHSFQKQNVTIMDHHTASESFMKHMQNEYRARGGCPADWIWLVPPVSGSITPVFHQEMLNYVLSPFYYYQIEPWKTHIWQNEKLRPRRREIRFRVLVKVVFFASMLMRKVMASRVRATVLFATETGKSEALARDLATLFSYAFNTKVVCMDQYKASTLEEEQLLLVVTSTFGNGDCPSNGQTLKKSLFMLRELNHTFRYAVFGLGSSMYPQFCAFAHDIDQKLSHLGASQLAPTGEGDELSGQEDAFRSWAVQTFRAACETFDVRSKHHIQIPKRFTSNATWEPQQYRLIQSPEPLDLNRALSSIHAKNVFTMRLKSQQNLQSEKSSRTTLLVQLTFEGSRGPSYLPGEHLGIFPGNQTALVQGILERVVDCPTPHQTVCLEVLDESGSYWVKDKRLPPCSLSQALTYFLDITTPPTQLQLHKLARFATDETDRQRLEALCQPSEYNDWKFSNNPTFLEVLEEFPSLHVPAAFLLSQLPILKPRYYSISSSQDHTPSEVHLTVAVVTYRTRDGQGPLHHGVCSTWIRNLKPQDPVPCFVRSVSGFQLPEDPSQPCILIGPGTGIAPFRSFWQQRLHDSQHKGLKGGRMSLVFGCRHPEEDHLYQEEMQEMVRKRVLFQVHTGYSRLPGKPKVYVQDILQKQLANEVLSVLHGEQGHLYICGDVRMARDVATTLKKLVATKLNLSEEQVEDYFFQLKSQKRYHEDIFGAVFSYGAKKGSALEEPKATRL

RAW264.7 [5] = test: Antiinflammatory activity in mouse RAW264.7 cells assessed as inhibition of LPS-induced TNFalpha release preincubated for 1 hr followed by LPS addition for 20 hrs by sandwich ELISA; assay type: functional, cell-based
RAW264.7 [6] = test: Antiinflammatory activity in mouse RAW264.7 cells assessed as inhibition of LPS-induced IL-6 production preincubated for 1 hr followed by LPS addition for 20 hrs by sandwich ELISA; assay type: functional, cell-based
RAW264.7 [7] = test: Inhibition of LPS-induced NO production in mouse RAW264.7 cells at 2 to 10 ug/ml preincubated for 1 hr followed by LPS-stimulation measured after 20 hrs by Griess assay; assay type: functional, cell-based
RAW264.7 [8] = test: Downregulation of TNFalpha mRNA expression levels in mouse RAW264.7 cells at 5 to 10 ug/ml preincubated for 1 hr followed by LPS-stimulation for 4 hrs by qRT-PCR method; assay type: functional, cell-based
RAW264.7 [9] = test: Downregulation of iNOS mRNA expression levels in mouse RAW264.7 cells at 5 to 10 ug/ml preincubated for 1 hr followed by LPS-stimulation for 4 hrs by qRT-PCR method; assay type: functional, cell-based
[10] = target: T1, NF-kappa-B inhibitor alpha (Mus musculus); test: Inhibition of IkappaBalpha phosphorylation in mouse RAW264.7 cells at 5 to 10 ug/ml preincubated for 1 hr followed by LPS-stimulation for 1 hr by Western blot method; assay type: cell-based
[11] = target: RAC-alpha serine/threonine-protein kinase (Mus musculus) (UniProt P31750); test: Inhibition of Akt-phosphorylation in mouse RAW264.7 cells at 5 to 10 ug/ml preincubated for 1 hr followed by LPS-stimulation for 1 hr by Western blot analysis; assay type: cell-based
RAC-alpha serine/threonine-protein kinase (Mus musculus), sequence (P31750 whole entry): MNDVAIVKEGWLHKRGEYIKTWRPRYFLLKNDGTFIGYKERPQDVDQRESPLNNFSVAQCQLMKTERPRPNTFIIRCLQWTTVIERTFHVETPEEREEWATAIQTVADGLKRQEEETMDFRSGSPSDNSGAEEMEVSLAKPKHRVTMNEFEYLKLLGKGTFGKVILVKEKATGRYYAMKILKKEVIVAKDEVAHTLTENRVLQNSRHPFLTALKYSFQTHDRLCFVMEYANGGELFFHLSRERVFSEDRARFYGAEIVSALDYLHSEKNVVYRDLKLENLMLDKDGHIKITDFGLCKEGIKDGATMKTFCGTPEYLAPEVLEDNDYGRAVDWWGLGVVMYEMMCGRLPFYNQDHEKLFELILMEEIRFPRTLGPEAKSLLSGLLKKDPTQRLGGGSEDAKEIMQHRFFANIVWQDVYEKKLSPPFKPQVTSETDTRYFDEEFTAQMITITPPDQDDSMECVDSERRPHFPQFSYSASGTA

Mus musculus [12] = species: Mus musculus; test: Inhibition of JNK-phosphorylation in mouse RAW264.7 cells at 5 to 10 ug/ml preincubated for 1 hr followed by LPS-stimulation for 1 hr by Western blot analysis; assay type: cell-based
Mus musculus [13] = species: Mus musculus; test: Inhibition of ERK-phosphorylation in mouse RAW264.7 cells at 5 to 10 ug/ml preincubated for 1 hr followed by LPS-stimulation for 1 hr by Western blot analysis; assay type: cell-based
[14] = target: MAP kinase p38 (Mus musculus) (UniProt P47811+O08911+Q9WUI1+Q9Z1B7); test: Inhibition of p38-phosphorylation in mouse RAW264.7 cells at 5 to 10 ug/ml preincubated for 1 hr followed by LPS-stimulation for 1 hr by Western blot analysis; assay type: cell-based
[15] = target: Protein c-Fos (Mus musculus) (UniProt P01101); test: Inhibition of c-fos-phosphorylation in mouse RAW264.7 cells preincubated for 1 hr followed by LPS-stimulation for 20 hrs by Western blot analysis; assay type: cell-based
Protein c-Fos (Mus musculus), sequence (P01101 whole entry): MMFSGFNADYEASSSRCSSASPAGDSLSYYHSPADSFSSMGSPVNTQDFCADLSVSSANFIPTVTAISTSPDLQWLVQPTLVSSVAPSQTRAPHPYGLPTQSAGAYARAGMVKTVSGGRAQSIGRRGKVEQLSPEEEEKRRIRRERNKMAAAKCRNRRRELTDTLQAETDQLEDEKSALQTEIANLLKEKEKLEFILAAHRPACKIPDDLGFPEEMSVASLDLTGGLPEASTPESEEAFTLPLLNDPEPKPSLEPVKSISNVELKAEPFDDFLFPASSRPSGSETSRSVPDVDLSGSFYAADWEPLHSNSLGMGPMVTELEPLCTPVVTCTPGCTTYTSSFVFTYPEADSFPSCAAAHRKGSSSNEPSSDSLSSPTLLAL

[16] = target: Signal transducer and activator of transcription 3 (Mus musculus) (UniProt P42227); test: Inhibition of STAT3 phosphorylation at Y705 residue in mouse RAW264.7 cells preincubated for 1 hr followed by LPS-stimulation for 20 hrs by Western blot analysis; assay type: cell-based
Signal transducer and activator of transcription 3 (Mus musculus), sequence (P42227 whole entry): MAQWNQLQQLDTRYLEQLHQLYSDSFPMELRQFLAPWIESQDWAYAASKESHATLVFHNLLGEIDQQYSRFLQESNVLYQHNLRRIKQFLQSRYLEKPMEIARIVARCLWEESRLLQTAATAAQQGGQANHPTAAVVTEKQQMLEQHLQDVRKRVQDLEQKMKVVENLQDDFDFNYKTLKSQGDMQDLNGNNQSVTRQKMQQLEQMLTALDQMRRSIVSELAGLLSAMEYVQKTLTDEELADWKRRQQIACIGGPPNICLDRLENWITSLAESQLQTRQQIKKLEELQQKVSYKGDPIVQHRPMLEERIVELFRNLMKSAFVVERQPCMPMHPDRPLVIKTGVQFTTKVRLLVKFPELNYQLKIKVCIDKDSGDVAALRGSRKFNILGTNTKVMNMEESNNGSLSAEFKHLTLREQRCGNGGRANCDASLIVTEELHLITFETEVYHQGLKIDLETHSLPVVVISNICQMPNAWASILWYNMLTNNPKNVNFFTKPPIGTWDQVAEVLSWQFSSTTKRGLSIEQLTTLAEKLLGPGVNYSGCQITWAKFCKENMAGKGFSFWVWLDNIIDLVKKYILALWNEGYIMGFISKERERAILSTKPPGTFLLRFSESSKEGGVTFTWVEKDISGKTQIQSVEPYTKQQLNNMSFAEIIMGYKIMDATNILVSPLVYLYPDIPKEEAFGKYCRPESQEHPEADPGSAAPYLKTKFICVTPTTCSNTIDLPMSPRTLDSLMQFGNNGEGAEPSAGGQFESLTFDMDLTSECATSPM

[17] = target: Signal transducer and activator of transcription 3 (Mus musculus) (UniProt P42227); test: Inhibition of STAT3 phosphorylation at S727 residue in mouse RAW264.7 cells preincubated for 1 hr followed by LPS-stimulation for 20 hrs by Western blot analysis; assay type: cell-based
RAW264.7 [18] = test: Cytotoxicity against mouse RAW264.7 cells assessed as decrease in cell viability incubated for 20 hrs by EZ-cytox assay; assay type: cell-based; details: RAW264.7, 20 h

## COc1cc2oc(-c3ccc(O)cc3)cc(=O)c2c(O)c1OC [CIRSIMARITIN]
[1]
  inhibition: Active
RAW264.7 [2]
  Activity: Dose-dependent effect
RAW264.7 [3]
  Activity: Non-Toxic
[4]
  inhibition: Active
RAW264.7 [5]
  inhibition: Dose-dependent effect
RAW264.7 [6]
  inhibition: Dose-dependent effect
RAW264.7 [7]
  inhibition: Active
RAW264.7 [8]
  Activity: Dose-dependent effect
RAW264.7 [9]
  Activity: Dose-dependent effect
[10]
  inhibition: Active
[11]
  inhibition: Active
Mus musculus [12]
  inhibition: inactive
Mus musculus [13]
  inhibition: inactive
[14]
  inhibition: inactive
[15]
  inhibition: Dose-dependent effect
[16]
  inhibition: Dose-dependent effect
[17]
  inhibition: Dose-dependent effect
RAW264.7 [18]
  IC50: 111 µg/mL (≈ 353 µM)
